In patent US20210300908A1, “S1P1 AGONIST AND APPLICATION THEREOF” (SHIJIAZHUANG SAGACITY SRUG SEVELOPMENT CO., LTD., priority 2016, published 2021):

Columns and labels:
[1] = Evaluation of compound pharmacokinetics in SD rats (intravenous injection and oral administration); format: in vivo; details: male, Sprague Dawley, rat, plasma, 2 mg/kg, 2 mpk; for clearance: read-out: Clearance rate; for AUC: read-out: Drug concentration integral: AUC; for half-life: read-out: Half-life period: T1/2 (converted); for bioavailability: oral, read-out: Fraction of bioavailability: F
Method: Aim of the experiments: To test pharmacokinetics of the compounds in SD rats. Experimental Materials: Sprague Dawley rats (male, 200-300 g, 7-9 weeks old, Shanghai Slack) Experimental Procedure: The rodent pharmacokinetic characteristics of the compounds after intravenous injection and oral administration were tested by the standard protocol. In the experiments, the transparent solution was prepared with the compounds to be test. The rats were administered single intravenous injection and oral administration. The solvent for intravenous injection and oral administration was aqueous hydroxypropyl β-cyclodextrin solution or normal saline solution with a certain concentration. Collect the blood samples within 24 hours and centrifuge at 3000 G for 15 minutes. Separate the supernatant to obtain the plasma samples. A volume of acetonitrile solution containing internal standard was added 4 times as the sample to precipitate the protein. The supernatant was obtained after centrifuge. An equal volume of water was added and then centrifuge again to collect the supernatant. The LC-MS/MS method was used to quantitatively analyze the blood drug concentration and the pharmacokinetic parameters such as peak concentration, peak time, clearance rate, half-life period, area under the curve of the drug concentration, and fraction of bioavailability, etc. were calculated.

S1P1 receptor = S1P1 receptor (Homo sapiens, UniProt P21453); experiment: S1P1 receptor agonistic activity (PathHunter cell strain, chemiluminescent signal detection); format: cell-based; details: PathHunter cells, agonist mode, 37° C. 90-180 minutes
Method: Test Method: […] Cell Processing i) Thaw the PathHunter cell strain according to the standard procedures. ii) Seed the cell in the 20 μL 384-microwell plate and incubate at 37° C. for an appropriate period. 2. Agonist i) For agonist testing, cells were incubated with the sample to be test to initiate a reaction; ii) The stock solution to be tested has been diluted 5 folds to be a buffer solution; iii) Inject the 5-fold diluted solution (5 μL) into the cells and incubate at 37° C. for 90-180 minutes. […] 3. Signal Detection i) Add 12.5 μL or 15 μL PathHunter detection reagent (50 vol. %) in one portion. Then, incubate at room temperature for 1 hour and generate the detection signal; ii) Use PerkinElmer Evision™ instrument to read the microwell plate to proceed with chemiluminescent signal detection. 4. Data Analysis i) Use CBIS data analysis system for the compound activity analysis. ii) Calculation formula: […]

Sequence of S1P1 receptor (P21453 whole entry): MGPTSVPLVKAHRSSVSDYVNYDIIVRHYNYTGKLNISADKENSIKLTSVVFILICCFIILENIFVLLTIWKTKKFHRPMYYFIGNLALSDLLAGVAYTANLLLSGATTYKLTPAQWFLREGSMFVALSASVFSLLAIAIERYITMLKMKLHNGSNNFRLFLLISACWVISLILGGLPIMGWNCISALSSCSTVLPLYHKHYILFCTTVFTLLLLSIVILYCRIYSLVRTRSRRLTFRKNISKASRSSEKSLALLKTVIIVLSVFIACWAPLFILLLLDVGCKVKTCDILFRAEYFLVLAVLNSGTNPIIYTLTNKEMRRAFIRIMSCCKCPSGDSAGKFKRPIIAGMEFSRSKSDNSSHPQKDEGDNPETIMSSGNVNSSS

Compound | EC50 (S1P1 receptor) [nM] | other results
CC(C)Oc1ccc(-c2nc(-c3cccc4c3CC3CC(=O)N(CCO)C43)no2)cc1C#N (stereo not shown) [Example 1 Mixture] | < 10 | –
CC(C)Oc1ccc(-c2ncc(-c3cccc4c3CC3CC(=O)N(CCO)C43)s2)cc1C#N (stereo not shown) [Example 2] | < 10 | –
CC(C)Oc1ccc(-c2nnc(-c3cccc4c3CC3CC(=O)N(CCO)C43)s2)cc1C#N (stereo not shown) [Example 3] | < 10 | –
CC(C)Oc1ccc(-c2ncc(-c3cccc4c3CC3CC(=O)N(CCO)C43)o2)cc1C#N (stereo not shown) [Example 4] | < 10 | –
CC(C)Oc1ccc(-c2ccc(-c3cccc4c3CC3CC(=O)N(CCO)C43)s2)cc1C#N (stereo not shown) [Example 5] | < 10 | –
CC(C)Oc1ccc(-c2nc(-c3cccc4c3CC3CC(=O)N(CCO)C43)ns2)cc1C#N (stereo not shown) [Example 6] | < 10 | –
CC(C)Oc1ccc(-c2nsc(-c3cccc4c3CC3CC(=O)N(CCO)C43)n2)cc1C#N (stereo not shown) [Example 7] | < 10 | –
CC(C)Oc1ccc(-c2nc(-c3cccc4c3CC3CC(=O)N(CCC(=O)O)C43)no2)cc1C#N (stereo not shown) [Example 9] | < 10 | –
CC(C)Oc1ccc(-c2nc(-c3cccc4c3CC3CC(=O)N(CCCC(=O)O)C43)no2)cc1C#N (stereo not shown) [Example 10] | < 10 | –
CC(C)Oc1ccc(-c2nc(-c3cccc4c3CC3CC(=O)N(CCCCC(=O)O)C43)no2)cc1C#N (stereo not shown) [Example 11] | < 10 | –
COCCN1C(=O)CC2Cc3c(-c4noc(-c5ccc(OC(C)C)c(C#N)c5)n4)cccc3C21 (stereo not shown) [Example 12] | < 10 | –
CC(C)Oc1ccc(-c2nc(-c3cccc4c3CC3CC(=O)N(CCS(C)(=O)=O)C43)no2)cc1C#N (stereo not shown) [Example 13] | < 10 | –
CC(C)Oc1ccc(-c2nc(-c3cccc4c3CC3CC(=O)N(CC(O)CO)C43)no2)cc1C#N (stereo not shown) [Example 14] | < 10 | clearance [1]: 7.22 mL/min/kg; AUC [1]: 5.76 µM·h; half-life [1]: 3.27 h; bioavailability [1]: 59%
CC(C)Oc1ccc(-c2nc(-c3cccc4c3CC3CC(=O)N(CC(=O)N(C)C)C43)no2)cc1C#N (stereo not shown) [Example 15] | 10 to 100 | –
O=C1CC2Cc3c(-c4noc(-c5ccc(OC(F)F)cc5)n4)cccc3C2N1CCO (stereo not shown) [Example 16] | > 100 | –
N#Cc1cccc(-c2nc(-c3cccc4c3CC3CC(=O)N(CCO)C43)no2)c1 (stereo not shown) [Example 17] | > 100 | –
COc1ccc(-c2nc(-c3cccc4c3CC3CC(=O)N(CCO)C43)no2)cc1 (stereo not shown) [Example 18] | > 100 | –
O=C1CC2Cc3c(-c4noc(-c5ccc(OC(F)(F)F)cc5)n4)cccc3C2N1CCO (stereo not shown) [Example 19] | > 100 | –

Compound | EC50 (S1P1 receptor) [nM] | other results
CC(C)Oc1cccc(-c2nc(-c3cccc4c3CC3CC(=O)N(CCO)C43)no2)c1 (stereo not shown) [Example 20] | > 100 | –
O=C1CC2Cc3c(-c4noc(-c5ccc(OC6CC6)cc5)n4)cccc3C2N1CCO (stereo not shown) [Example 21] | > 100 | –
CC(C)Oc1ccccc1-c1nc(-c2cccc3c2CC2CC(=O)N(CCO)C32)no1 (stereo not shown) [Example 22] | > 100 | –
O=C1CC2Cc3c(-c4noc(-c5ccc(OCC6CC6)cc5)n4)cccc3C2N1CCO (stereo not shown) [Example 23] | > 100 | –
COCOc1ccc(-c2nc(-c3cccc4c3CC3CC(=O)N(CCO)C43)no2)cc1 (stereo not shown) [Example 24] | > 100 | –
CC(C)Oc1ccc(-c2nc(-c3cccc4c3CC3CC(=O)N(CCO)C43)no2)cc1Br (stereo not shown) [Example 25] | < 10 | –
CC(C)Oc1ccc(-c2nc(-c3cccc4c3CC3CC(=O)N(CCO)C43)no2)cc1Cl (stereo not shown) [Example 26] | < 10 | clearance [1]: 7.5 mL/min/kg; AUC [1]: 4.35 µM·h; half-life [1]: 26.7 h; bioavailability [1]: 88.2%
CC(C)Oc1ccc(-c2nc(-c3cccc4c3CC3CC(=O)N(CCO)C43)no2)cc1C(F)F (stereo not shown) [Example 27] | < 10 | clearance [1]: 8.86 mL/min/kg; AUC [1]: 4.78 µM·h; half-life [1]: 21.2 h; bioavailability [1]: 92.6%
CN(C)CCOc1ccc(-c2nc(-c3cccc4c3CC3CC(=O)N(CCO)C43)no2)cc1 (stereo not shown) [Example 28] | > 100 | –
Cc1nc(C)c(-c2nc(-c3cccc4c3CC3CC(=O)N(CCO)C43)no2)o1 (stereo not shown) [Example 29] | > 100 | –
CCCc1nnsc1-c1nc(-c2cccc3c2CC2CC(=O)N(CCO)C32)no1 (stereo not shown) [Example 30] | > 100 | –
O=C1CC2Cc3c(-c4noc(-c5nc6ccccn6c5F)n4)cccc3C2N1CCO (stereo not shown) [Example 31] | > 100 | –
O=C1CC2Cc3c(-c4noc(-c5csc(-c6ccccc6)n5)n4)cccc3C2N1CCO (stereo not shown) [Example 32] | > 100 | –
CN1CCc2nc(-c3nc(-c4cccc5c4CC4CC(=O)N(CCO)C54)no3)sc2C1 (stereo not shown) [Example 33] | > 100 | –
CC(C)c1ncc(-c2nc(-c3cccc4c3CC3CC(=O)N(CCO)C43)no2)s1 (stereo not shown) [Example 34] | > 100 | –
O=C1CC2Cc3c(-c4noc(-c5cnc6ncccn56)n4)cccc3C2N1CCO (stereo not shown) [Example 35 Compound 35-2] | > 100 | –
O=C1CC2Cc3c(-c4noc(-c5cn6cccnc6n5)n4)cccc3C2N1CCO (stereo not shown) [Example 35 Compound 35-3] | > 100 | –

Continued, in another order:

EC50 (S1P1 receptor) [nM] | Compound | other results
< 10 | CC(C)Oc1ccc(-c2nc(-c3cccc4c3C[C@@H]3OC(=O)N(CCO)[C@H]43)no2)cc1C#N (relative stereo) [Example 50] | clearance [1]: 6.59 mL/min/kg; AUC [1]: 8.52 µM·h; half-life [1]: 4.82 h; bioavailability [1]: 72.4%
> 100 | O=C1CC2Cc3c(-c4noc(-c5cn6c(n5)CCCC6)n4)cccc3C2N1CCO (stereo not shown) [Example 36] | –
> 100 | O=C1CC2Cc3c(-c4noc(-c5cc(-c6nccs6)on5)n4)cccc3C2N1CCO (stereo not shown) [Example 37] | –
> 100 | O=C1CC2Cc3c(-c4noc(-c5cn(Cc6ccccc6)nn5)n4)cccc3C2N1CCO (stereo not shown) [Example 38] | –
10 to 100 | CC(C)Oc1ccc(-c2nc(-c3cccc4c3CC3CC(=O)N(CCO)C43)no2)cc1 (stereo not shown) [Example 39] | –
< 10 | CC(C)Oc1ccc(-c2nc(-c3cccc4c3CC3CC(=O)N(CCO)C43)no2)cc1OC(F)F (stereo not shown) [Example 40] | clearance [1]: 14.1 mL/min/kg; AUC [1]: 0.444 µM·h; half-life [1]: 10.7 h; bioavailability [1]: 82.3%
> 100 | CC(C)Oc1ccc(-c2nc(-c3cccc4c3CC3CC(=O)N(CCO)C43)no2)cc1OCCN(C)C (stereo not shown) [Example 41] | –
> 100 | CC(C)Oc1ccc(-c2nc(-c3cccc4c3CC3CC(=O)N(CCO)C43)no2)c(C#N)c1 (stereo not shown) [Example 42] | –
10 to 100 | CC(C)Oc1ccc(-c2nc(-c3cccc4c3CC3CC(=O)N(CCO)C43)no2)cc1S(C)(=O)=O (stereo not shown) [Example 43] | –
10 to 100 | COc1cc(-c2nc(-c3cccc4c3CC3CC(=O)N(CCO)C43)no2)cc(C2CCCC2)n1 (stereo not shown) [Example 44] | –
< 10 | CC(C)Oc1ccc(-c2nc(-c3cccc4c3CC3CCC(=O)N(CCO)C43)no2)cc1C#N (stereo not shown) [Example 45] | –
< 10 | CC(C)Oc1ccc(-c2nc(-c3cccc4c3CCC3CC(=O)N(CCO)C43)no2)cc1C#N (stereo not shown) [Example 46] | –
< 10 | CC(C)Oc1ccc(-c2nc(-c3cccc4c3CC3CC(=O)N(CCOS(=O)(=O)O)[C@H]43)no2)cc1C#N (stereo partly shown) [Example 47] | –
10 to 100 | CC(C)Oc1ccc(-c2nc(-c3cccc4c3CC3CCN(CCO)C43)no2)cc1C#N (stereo not shown) [Example 49] | –
< 10 | CC(C)Oc1ccc(-c2nnc(-c3cccc4c3C[C@@H]3CC(=O)N(CCO)[C@H]43)o2)cc1C#N [Example 51] | –
< 10 | CC(C)Oc1ccc(-c2nc(-c3cccc4c3CC3CCN(CC(=O)O)C43)no2)cc1C#N (stereo not shown) [Example 52] | –
< 10 | CC(C)Oc1ccc(-c2nc(-c3cccc4c3C[C@@H]3CCN(C5CC(C(=O)O)C5)C43)no2)cc1C#N (stereo partly shown) [Example 53] | –
10 to 100 | CC(C)Oc1ccc(-c2nc(-c3cccc4c3CC3CC(=O)N(CCO)[C@H]43)n[nH]2)cc1C#N (stereo partly shown) [Example 54] | –
10 to 100 | CC(C)Oc1ccc(-c2nc(-c3cccc4c3C[C@@H]3CC(=O)N([C@@H](CO)C(C)C)C43)no2)cc1C#N (stereo partly shown) [Example 55] | –
< 10 | CC(C)Oc1ccc(-c2nc(-c3cccc4c3C[C@@H]3CC(=O)N([C@H](C)CO)C43)no2)cc1C#N (stereo partly shown) [Example 56] | clearance [1]: 14.6 mL/min/kg; AUC [1]: 3.32 µM·h; half-life [1]: 1.63 h; bioavailability [1]: 66.7%
